Literature values, collected in patent US20070148722A1, “Method for determining the concentration of thrombin inhibitors” (priority 1999, published 2007).

Molecular target: meizothrombin (Homo sapiens, UniProt P00734)
Settings: theoretical background statement; affinity to atypical intermediate meizothrombin

Ki: > 0.1 nM
Substance: hirudin
